What was measured:
Experiment in all cases: NCI-60 growth inhibition (sulforhodamine B)
CCRF-CEM = type: cell-based, human; settings: CCRF-CEM (Leukemia), negative log of Molar conc., LCONC -8
ACHN = type: cell-based; settings: Homo sapiens, Renal Cancer, negative log of Molar value
COLO205 = type: cell-based, human; settings: COLO 205 (Colon Cancer), negative log of Molar conc., LCONC -8
[1] = Homo sapiens, read-out: IC50 NLOGVALUE (converted)

`C[C@H](CN[C@@H](C(=O)Nc1ccc(-c2cnn(C)c2)cn1)c1ccccc1)c1ccc(C#N)cc1` [CPI-1612] was tested, and the “TGI NLOGVALUE” (CCRF-CEM) was 4, the GI50 (CCRF-CEM; Homo sapiens, read-out: GI50 NLOGVALUE) was under 10 nM and the IC50 (CCRF-CEM; [1]) was 135 nM. It also gave a CC50 (CCRF-CEM; Homo sapiens, read-out: LC50 NLOGVALUE) of over 100000 nM, a GI50 (ACHN; LCONC -8, EXPID 2301NS84, read-out: GI50 NLOGVALUE (converted)) of 12.9 nM and an IC50 (ACHN; LCONC -8, EXPID 2301NS84, read-out: IC50 NLOGVALUE (converted)) of 30.9 nM. For the same compound, the “TGI NLOGVALUE” (COLO205) was 4, the GI50 (COLO205; Homo sapiens, read-out: GI50 NLOGVALUE (converted)) was 24.5 nM and the IC50 (COLO205; [1]) was 417 nM.
